Experimental data as given in US6025365A, “Chelerythrine and radiation combined tumor therapy” (Arch Development Corp., priority 1997, dated 2000).

Legend:
WEHI-231 OE cells [1] = assay: Resistance of selected WEHI-231 OE variants to n-oleoylethanolamine; assay type: cell-based, murine; settings: 75 μM n-oleoylethanolamine
Experimental: WEHI-231 JM cells (1×10^7) were treated with two successive treatments of 100 μM and 125 μM N-oleoylethanolamine (Matreya), a potent inhibitor of ceramidase (Coroneos et al., 1995; Ambrosini et al., 1994). Cells were grown in media containing n-oleoylethanolamine for 96 hours. Serial dilutions isolated individual resistant cells and were expanded after each selection. Every two weeks cells were re-selected with 125 μM n-oleoethanolamine.

WEHI-231 JM cells [2] = assay: Intracellular ceramide accumulation in WEHI-231 JM cells; assay type: cell-based, murine; settings: within 24 hours
Experimental: Quantitation of ceramide by diacylglycerol kinase was similar to that described by Dressler and Kolesnick (1990). After irradiation, lipids were extracted and resuspended by bath sonication in 20 μl of 7.5% n-octyl-β-D-glucopyranoside, 5 mM cardiolipin, 1 mM DETAPAC. Seventy μl of a reaction mix was added to give a final concentration of 0.05M imidazole/HCl pH 6.6, 0.05M NaCl, 12.5 mM MgCl2, 1 mM EGTA and DAG kinase at a concentration of 0.7 U/ml. The reaction was started by the addition of 10 μl of [γ-^32 P]ATP (1.0 μCi/tube) in 5 mM ATP and incubated at room temperature for 30 min and stopped by the extraction of lipids with 450 μl of CHCl3 :CH3 OH (1:2) and 20 μl of 1% HClO4. The monophase was mixed and after 10 min., 150 μl CHCl3 and 150 μl of 1% HClO4 were added and the tubes vortexed and centrifuged at 5000 g for 5 min. The lower organic phase was washed twice with 1% HClO4 and then dried in a Speed Vac Apparatus. The phosphorylation products, ceramide-1-phosphate and phosphatidic acid (fom DAG) were resolved on a 10 cm×10 cm LH P-K TLC plate (Whatman). Data was calculated as pmoles of ceramide/10^6 cells by scintillation counting. In Example 6, data (mean +/- SD) represent at least 4 independent studies in which *p<002 compared with unirradiated controls. […]

HL-60 cells = settings: literature reports; cited from earlier work
WEHI-231 JM cells [3] = assay: Viability by PI staining and FACS, WEHI-231 JM; assay type: cell-based, murine; settings: Mus musculus, WEHI231, 24 hours
Experimental: (§1) FIG. 11B. WEHI-231 JM and OE cells are equally sensitive to inhibition of sphingosine kinase and exogenous ceramide. Cells were treated with increasing concentrations of C2-ceramide or DL-threo-dihydrosphingosine--apotent inhibitor of sphingosine kinase. Viability was assayed using PI staining and FACS analysis 24 hours after treatment.
(§2) For viability staining, 2.5-3.5×10^5 cells were treated with varying concentrations of C2-ceramide, irradiation, or both.
(§3) In order to address the question of whether the resistance of the OE subline was due, in part, to alterations in ceramide metabolites or targets, three studies were performed. […] Both cell lines were equally susceptible to the effects of sphingosine kinase inhibition and the resulting […] in ceramide. […] Thus the radioresistance can be attributed to the lack of sphingomyelinase activation and the subsequent decreased ceramide production following irradiation.

WEHI-231 OE cells [4] = assay: Viability by PI staining and FACS, WEHI-231 OE; assay type: cell-based, murine; settings: Mus musculus, WEHI231, 24 hours
Experimental: as §1, §2, §3

WEHI-231 cells [5] = assay: Apoptosis / cell death of WEHI-231 (propidium iodide FACS, gel electrophoresis, DAPI); assay type: cell-based, murine; settings: chelerythrine 10 μM or calphostin C 250 nM
Experimental: Cells undergoing apoptosis also shrink in size.
Cells, 5×10^5, were centrifuged at 1000 rpm and resuspended in approximately 100 μl cell culture media. The cell suspension was then mixed with 100 μl of DAPI (4',6-iamidino-2-phenylindole, Sigma D9542, 1 μg/ml in PBT (PBS+1% Triton X-100)). One drop of this mixture was placed on a microslide with a coverslip. The cells were viewed by fluorescence microscopy using an Olympus BX-40 microscope with a 100 Watt Mercury lamp, a 16 or 40 X Fluorite objective, N.A. 0.75, (Leco #1-UB527) and a UV filter cube (ex 330-385 nm, em 420 nm, wide band pass, Leco #U-M536). Images were photographed using an Optronics cooled low-light video camera (Leco #DEI-470TB) to which was attached a 2X coupler (Leco #HR200-CMT). The image was saved to a digital file at 72 dpi.
DNA degradation was assessed as previously described (Gottschalk et al., 1993; 1994). Briefly, following treatment in 100 mm plates or 24 well plates, cells were collected and lysed in 0.5 ml lysis buffer (0.6% SDS+10 mM EDTA, pH 7.0). NaCl was added to a final concentration of 1M, mixed by inversion, incubated for 12 hours at 4° C. and then spun at 14,000 g for 30 minutes. Samples were treated with chloroform (1:1) and precipitated in ethanol prior to electrophoresis in a 3% agarose gel and visualized with ethidium bromide.

WEHI-231 cells [6] = assay: Ceramide production by DAG kinase assay; assay type: cell-based, murine; settings: 250 nM calphostin C, 2 hours
Experimental: (§4) FIG. 7A. Inhibition of PKC causes an increase in ceramide production through the activation of a neutral sphingomyelinase and decreases in sphingomyelin levels. Ceramide production was quantitated using the DAG kinase assay for WEHI-231 JM cells and total lipid extraction was used to assay sphingomyelin mass. Following addition of 10 μM chelerythrine, cells were lysed at the appropriate time points as described herein. Each data point represents the average percentage change in ceramide or sphingomyelin generation from baseline derived from at least 8 independent studies for all time points with the exception of those marked with * (n=4). Standard deviations depicted by error bars.
(§5) FIG. 7B. […] Ceramide production and sphingomyelin mass was quantitated identical to that for chelerythrine. Cells were lysed 2 hours following the addition of 250 nM calphostin C. […]
Quantitation of ceramide by diacylglycerol kinase was similar to that described by Dressler and Kolesnick (1990). […] Data was calculated as pmoles of ceramide/10^6 cells by scintillation counting. […]
In order to test whether PKC inhibition alters ceramide production, the DAG kinase assay was used to quantify intracellular ceramide following chelerythrine and calphostin C treatment (Dressler and Kolesnick, 1990; Preiss et al., 1986). […]

WEHI-231 cells [7] = assay: Sphingomyelin mass by lipid extraction / TLC; assay type: cell-based, murine; settings: 250 nM calphostin C, 2 hours
Experimental: as §4, §5
Cells were prelabeled with [^3 H] palmitate (10 μCi/ml) for 24 hours to isotopic equilibrium in 15 ml glass tubes to minimize changes in cellular ceramide and sphingomyelin due to handling and changing of media (Borchardt et al., 1994). […] Autoradiographs were quantitated using an Epson 1200 c 30 bit scanner and NIH Image software (public domain program developed at the NIH and available from the Internet via FTP from zippy.nimh.nih.gov). […]

protein kinase C (PKC) = settings: cited from earlier work
cyclic-AMP kinase (PKA) = settings: cited from earlier work
WEHI-231 cells [8] = settings: Chmura et al., 1996a; cited from earlier work

CCCCCCCC/C=C\CCCCCCCC(=O)NCCO [N-oleoylethanolamine]
resistance to apoptosis vs parental line (WEHI-231 OE cells [1]): 3 fold | intracellular accumulation of ceramide (WEHI-231 JM cells [2]): rose within 24 hours in a dose dependent manner

CN[C@@H]1C[C@H]2O[C@@](C)([C@@H]1OC)n1c3ccccc3c3c4c(c5c6ccccc6n2c5c31)C(=O)NC4 [staurosporine]
apoptosis in HL-60 cells (HL-60 cells): both to antagonize (Cotter et al., 1992) and to initiate apoptosis in HL-60 cells

CCCCCCCCCCCCCCC[C@H](O)[C@@H](N)CO (relative stereo) [DL-threo-dihydrosphingosine]
IC50 (WEHI-231 JM cells [3]): 3 µM | IC50 (WEHI-231 OE cells [4]): 3 µM

Calphostin C
cell death (WEHI-231 cells [5]; 24 hours): greater than 90% | DNA laddering and nuclear condensation (WEHI-231 cells [5]): DNA laddering and nuclear condensation | ceramide production (WEHI-231 cells [6]): induced cerarnide production | sphingomyelin levels (WEHI-231 cells [7]): decreased sphingomyelin levels | specificity at blocking PKC vs staurosporin and H7 (protein kinase C (PKC)): at least 30 fold | inhibition of PKA (cyclic-AMP kinase (PKA); at concentrations used for the inventors' studies): do not appear to inhibit other kinases | IC50 (cyclic-AMP kinase (PKA)): 50 µM | interaction with exogenous ceramide analogs in inducing apoptosis (WEHI-231 cells [8]): act in synergy with exogenous ceramide analogs to induce apoptosis
